# Experimental data reported in article PMC6679700 (International Journal of Nanomedicine, 2019).
# Experiments:
# TRPM8 = details: skin; cited from earlier work
# [1] = Solubility of FK506 in water, MCE and MCE ME; type: physicochemical; details: menthol/camphor eutectic, ratio 3/1 (w/w)
# [2] = cited from earlier work
Solubility of FK506 in MCE [1] [mg/mL],Compound,Duration of cool sensation (TRPM8),Aqueous solubility [2] [mg/mL]
,"CC1CCC(C(C)C)C(O)C1 (stereo not drawn) [Menthol, menthol]",up to 70 mins,
136,"C=CC[C@@H]1/C=C(\C)C[C@H](C)C[C@H](OC)[C@H]2O[C@@](O)(C(=O)C(=O)N3CCCC[C@H]3C(=O)O[C@H](/C(C)=C/[C@@H]3CC[C@@H](O)[C@H](OC)C3)[C@H](C)[C@@H](O)CC1=O)[C@H](C)C[C@@H]2OC [FK506, Tacrolimus]",,0.004 to 0.012
